Measured values published in patent publication US7202269B2, “GlyT2 modulators” (Janssen Pharmaceutica N.V., priority 2003, dated 2007).

Target: T1, human glycine transporter-2 (GlyT2) (Homo sapiens, UniProt Q9Y345)
T1 construct: The entire coding region of the human GlyT2 cDNA was cloned into the mammalian expression vector pClNeo; expressed in transfected cells; host or cells: Cos-7 cells (African green monkey kidney, ATCC), stably transfected, G418-selected; vector pClNeo
T1 sequence (Q9Y345 1-797): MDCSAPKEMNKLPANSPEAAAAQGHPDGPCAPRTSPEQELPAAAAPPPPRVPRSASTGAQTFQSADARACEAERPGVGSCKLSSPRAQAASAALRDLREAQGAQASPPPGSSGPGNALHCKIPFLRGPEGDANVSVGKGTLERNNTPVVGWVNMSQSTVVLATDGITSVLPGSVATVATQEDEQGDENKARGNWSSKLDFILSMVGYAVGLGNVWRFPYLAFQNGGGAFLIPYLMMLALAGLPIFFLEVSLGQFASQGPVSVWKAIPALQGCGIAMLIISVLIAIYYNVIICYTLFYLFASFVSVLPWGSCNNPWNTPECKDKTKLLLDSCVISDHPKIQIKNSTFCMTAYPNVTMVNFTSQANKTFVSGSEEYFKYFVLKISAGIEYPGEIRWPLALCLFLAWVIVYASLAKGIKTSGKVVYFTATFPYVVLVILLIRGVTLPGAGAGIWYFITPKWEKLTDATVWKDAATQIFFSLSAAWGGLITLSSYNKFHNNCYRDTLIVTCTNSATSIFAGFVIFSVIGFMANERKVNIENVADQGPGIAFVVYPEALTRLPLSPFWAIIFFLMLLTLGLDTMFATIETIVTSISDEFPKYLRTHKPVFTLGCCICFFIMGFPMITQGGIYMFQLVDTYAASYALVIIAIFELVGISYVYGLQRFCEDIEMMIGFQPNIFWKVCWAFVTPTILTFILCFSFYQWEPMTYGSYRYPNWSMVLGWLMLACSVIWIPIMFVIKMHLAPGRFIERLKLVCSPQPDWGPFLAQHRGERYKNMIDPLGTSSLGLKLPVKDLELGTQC
Experiment: Inhibition of [14C]-glycine uptake in COS-7 cells transfected with human GlyT2
Type: cell-based
Conditions: Table 2, 20 μM, 2 h at 37° C., Cos-7 cells stably transfected with human GlyT2
Procedure: GlyT2 antagonist activity of representative compounds of the invention was determined in accordance with the assay described in the Examples and by measuring the ability of compounds to inhibit the uptake of [^14C]-glycine in COS-7 cells transfected with the human glycine transporter-2 (GlyT2). The GlyT2 antagonist activities of these representative compounds are set forth hereinafter in Table 1.
Cos-7 cells (African green monkey, kidney) from American Type Culture Collection were grown in DMEM supplemented with 10% fetal bovine serum. The entire coding region of the human GlyT2 cDNA was cloned into the mammalian expression vector pClNeo, and then stably transfected into Cos-7 cells. Transfection was performed essentially as described by T. W. Lovenberg et al. (Mol. Pharmacol. 1999, 55:1101–1107): Briefly, cells were grown to 70–80% confluence, removed from the plate with trypsin, and pelleted in a clinical centrifuge. The pellet was resuspended in 400 μL complete medium and transferred to an electroporation cuvette with a 0.4 cm gap between the electrodes (Bio-Rad, 165–2088). One microgram of supercoiled GlyT2 cDNA was added to the cells, and the suspension was mixed. The voltage for the electroporation was set at 0.25 kV, and the capacitance was set at 960 μF. After electroporation, the cuvette contents were diluted to 10 mL with complete medium, and 0.5 mL, 1.0 mL, 2.0 mL and remainder (˜6.5 mL) portions were plated onto four 10-cm dishes. The cells were incubated 24 h before adding 600 μg/mL G418. Colonies that survived selection were isolated and tested for GlyT2 expression.
The day before the assay, the GlyT2 expressing cells were plated into 96-well scintillating microplates (Amersham, RPNQ 0160) at a density of approximately 20,000 cells per well. Cells were grown overnight at 37° C. in 5% CO2 and then washed once with 37° C. HEPES buffered saline (HBS: 150 mM NaCl, 20 mM HEPES, 1 mM CaCl2, 10 mM glucose, 5 mM KCl, 1 mM MgCl2; pH 7.4). Eighty microliters of 37° C. HBS was subsequently added to each well. Test solutions of GlyT2 inhibitors were prepared in HBS from DMSO stock solutions, and 5 μL of test solution was added to each test well. Total transport and non-specific background were determined by adding 5 μL HBS or 5 μL 2 M glycine, respectively, to the appropriate control wells. Plates were then left at rt for 5 min before the addition of 20 μL of 100 μM ^14C-glycine (NEN, NEC 048H) to each well for a final concentration of 20 μM. Plates were incubated for 2 h at 37° C. with 5% CO2. After 2 h the reaction mixtures were removed by aspiration, and the plates were washed once with ice-cold HBS. Plates were sealed with TopSeal (Packard, 6005185) and counted on a Packard TopCount® scintillation counter.

Row | SMILES | IC50
1 | O=C(Nc1cccc(Oc2ccccc2)c1)N[C@@H](Cc1ccccc1)C(=O)NCCCN1CCCC1 [Example 122, (S)-2-[3-(3-Phenoxy-phenyl)-ureido]-3-phenyl-N-(3-pyrrolidin-1-yl-propyl)-propionamide] | 440 nM
2 | O=C(Nc1ccc(-c2ccccc2)cc1)N[C@@H](Cc1cccnc1)C(=O)NCCCN1CCCC1 [Example 142, (S)-2-(3-Biphenyl-4-yl-ureido)-3-pyridin-3-yl-N-(3-pyrrolidin-1-yl-propyl)-propionamide] | 685 nM
3 | CC(C)[C@@H](CC(=O)NCCN(C(C)C)C(C)C)NC(=O)Nc1ccc(-c2ccccc2)cc1 [Example 146, (R)-3-(3-Biphenyl-4-yl-ureido)-4-methyl-pentanoic Acid (2-diisopropylamino-ethyl)-amide] | 595 nM
4 | O=C(Nc1cccc(-c2ccccc2)c1)N[C@@H](Cc1ccccc1)C(=O)NCCCN1CCCC1 [Example 150, (S)-2-(3-Biphenyl-3-yl-ureido)-3-phenyl-N-(3-pyrrolidin-1-yl-propyl)-propionamide] | 998 nM

Further lines, results first:

Row | IC50 | SMILES
5 | 8000 nM | O=C(Nc1ccc(-c2ccccc2)cc1)NC(C(=O)NCCN1CCCC1)(c1ccccc1)c1ccccc1 [Example 143, 2-(3-Biphenyl-4-yl-ureido)-2,2-diphenyl-N-(2-pyrrolidin-1-yl-ethyl)-acetamide]
6 | 3160 nM | NCCCNC(=O)/C=C/[C@H](Cc1ccccc1)NC(=O)Nc1ccc(-c2ccccc2)cc1 [Example 152, (E)-(S)-4-(3-Biphenyl-4-yl-ureido)-5-phenyl-pent-2-enoic Acid (3-amino-propyl)-amide]
7 | 181 nM | O=C(Nc1ccc(Oc2ccccc2)cc1)N[C@H](CNCCN1CCCC1)Cc1ccccc1 [Example 157, 1-[(S)-1-Benzyl-2-(2-pyrrolidin-1-yl-ethylamino)-ethyl]-3-(4-phenoxy-phenyl)-urea]
8 | 340 nM | O=C(Nc1ccc(-c2ccccc2)cc1)N[C@@H](CCCNCCN1CCCC1)Cc1ccccc1 [Example 158, 1-[(S)-1-Benzyl-4-(2-pyrrolidin-1-yl-ethylamino)-butyl]-3-biphenyl-4-yl-urea]
